This is an account of results in patent publication US20230104936A1, “TRPML MODULATORS” (Casma Therapeutics, Inc., priority 2019, published 2023).

The structures appear in SMILES notation.

For one assay, the system named is TFEB. In words: TFEB nuclear translocation assay, HeLa wt cells. Type of assay: cell-based. The settings on record: 2 hrs compound treatment, Table 1 does not say HeLa wt or TRPML1 KO. The method, boiled down: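 HeLa wt cells were treated with compound for 2 hrs at 37° C, then fixed in 4% PFA and immunostained for TFEB with an Alexa 488 secondary and Hoechst nuclear counterstain. Automated epifluorescence imaging at ×20 gave the ratio of nuclear TFEB intensity to a perinuclear ring region, from which AC50 was derived.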
`CC(c1cccc(F)c1N1CCC(CN2CCC(F)(F)CC2)CC1)S(=O)(=O)c1ccc(S(=O)(=O)N(C)C)cc1` (stereo not shown) [Compound A-804, 4-((1-(2-(4-((4,4-difluoropiperidin-1-yl)methyl)piperidin-1-yl)-3-fluorophenyl)ethyl)sulfonyl)-N,N-dimethylbenzenesulfonamide] returned an AC50 of no more than 2000 nM.
The same measure, in the same setting: to `CC(c1cccc(F)c1N1CCCCC1)S(=O)(=O)c1ccc(S2(=O)=NCCC2)cc1` (single isomer, unassigned) [Compound A-991, 1-(4-((1-(3-fluoro-2-(piperidin-1-yl)phenyl)ethyl)sulfonyl)phenyl)-4,5-dihydro-3H-isothiazole 1-oxide] belongs 2010 to 8000 nM.

The assay is the same for the next values; noted with them: Homo sapiens, HeLa, 2 h, 2 hrs compound treatment, Table 1 does not say HeLa wt or TRPML1 KO.
In turn, `CN(C(=O)C1(C)CCN(c2ccccc2NS(=O)(=O)c2ccc(S(=O)(=O)N(C)C)cc2)CC1)C(C)(C)C` [Compound A-360, N-tert-butyl-1-{2-[4-(dimethylsulfamoyl)benzenesulfonamido]phenyl}-N,4-dimethylpiperidine-4-carboxamide] had an AC50 of no more than 2000 nM.
The molecule `COC(=O)N1CCN(c2ccccc2NS(=O)(=O)c2ccc(S(=O)(=O)N(C)C)cc2)CC1` [Compound A-309, methyl 4-{2-[4-(dimethylsulfamoyl)benzenesulfonamido]phenyl}piperazine-1-carboxylate] had an AC50 of 2010 to 8000 nM.
`Cc1ccc(CS(=O)(=O)Nc2ccccc2N2CCC3(CC2)COC(C)(C)C3)cc1F` [Compound A-677, N-(2-{3,3-dimethyl-2-oxa-8-azaspiro[4.5]decan-8-yl}phenyl)-1-(3-fluoro-4-methylphenyl)methanesulfonamide] had an AC50 of no more than 2000 nM.
On the same count and under the same terms, in the case of `CC(c1cccc(F)c1N1CCC(CN2C3CCC2COC3)CC1)S(=O)(=O)c1ccc(S(=O)(=O)N(C)C)cc1` (stereo not shown) [Compound A-832, 4-((1-(2-(4-((3-oxa-8-azabicyclo[3.2.1]octan-8-yl)methyl)piperidin-1-yl)-3-fluorophenyl)ethyl)sulfonyl)-N,N-dimethylbenzenesulfonamide] it was no more than 2000 nM; in that of `O=C(NC1CC1)c1ccc(S(=O)(=O)Nc2ccccc2N2CCC(c3ccc(Cl)cc3F)CC2)cc1` [Compound A-45, 4-({2-[4-(4-chloro-2-fluorophenyl)piperidin-1-yl]phenyl}sulfamoyl)-N-cyclopropylbenzamide], 2010 to 8000 nM; in that of `CN1CC2(CCN(c3ccc(Cl)cc3NS(=O)(=O)c3ccc4c(c3)CCC4)CC2)c2ccc(F)cc21` [Compound A-439, N-(5-chloro-2-{6-fluoro-1-methyl-1,2-dihydrospiro[indole-3,4′-piperidin]-1′-yl}phenyl)-2,3-dihydro-1H-indene-5-sulfonamide], no more than 2000 nM.
The molecule `CN(C)S(=O)(=O)c1ccc(S(=O)(=O)Nc2ccccc2N2CCC3(CCOCC3)CC2)cc1` [Compound A-524, N1,N1-dimethyl-N4-(2-{3-oxa-9-azaspiro[5.5]undecan-9-yl}phenyl)benzene-1,4-disulfonamide] yielded an AC50 of no more than 2000 nM.
Regarding `CC(c1cccc(F)c1N1CCC(CN2CCC(F)(F)C2)CC1)S(=O)(=O)c1ccc(S(=O)(=O)N(C)C)cc1` (stereo not shown) [Compound A-802, 4-[1-(2-{4-[(3,3-difluoropyrrolidin-1-yl)methyl]piperidin-1-yl}-3-fluorophenyl)ethanesulfonyl]-N,N-dimethylbenzene-1-sulfonamide], the AC50 is no more than 2000 nM.
On the same count and under the same terms, in the case of `COCCC1CCN(c2ccccc2NS(=O)(=O)c2ccc(S(=O)(=O)N(C)C)cc2)CC1` [Compound A-611, N4-{2-[4-(2-methoxyethyl)piperidin-1-yl]phenyl}-N1,N1-dimethylbenzene-1,4-disulfonamide] it was no more than 2000 nM; in that of `CN1CC2(CCN(c3ccccc3NS(=O)(=O)c3ccc(S(=O)(=O)N(C)C)cc3)CC2)c2cccnc21` [Compound A-331, N1,N1-dimethyl-N4-(2-{1′-methyl-1′,2′-dihydrospiro[piperidine-4,3′-pyrrolo[2,3-b]pyridin]-1-yl}phenyl)benzene-1,4-disulfonamide], no more than 2000 nM; in that of `COc1ccc(S(=O)(=O)Nc2ccccc2N2CCC(N(C)c3ccc(F)cc3F)C2)cc1` (stereo not shown) [Compound A-201, N-(2-{3-[(2,4-difluorophenyl)(methyl)amino]pyrrolidin-1-yl}phenyl)-4-methoxybenzene-1-sulfonamide], 2010 to 8000 nM.
Same read-out and setting: in the case of `COCC1(C)CCN(c2ccccc2NS(=O)(=O)c2ccc(CC(C)(C)C)cc2)CC1` [Compound A-489, 4-(2,2-dimethylpropyl)-N-{2-[4-(methoxymethyl)-4-methylpiperidin-1-yl]phenyl}benzene-1-sulfonamide] it was 2010 to 8000 nM; in that of `C[C@@H]1CC(OC2CCN(c3c(F)cccc3NS(=O)(=O)c3ccc(S(=O)(=O)N(C)C)cc3)CC2)C[C@H](C)O1` (stereo partly drawn) [Compound A-817, N4-[2-(4-{[(2R,6S)-2,6-dimethyloxan-4-yl]oxy}piperidin-1-yl)-3-fluorophenyl]-N1,N1-dimethylbenzene-1,4-disulfonamide], no more than 2000 nM.
On the same count and under the same terms, to `CS(=O)(=O)c1ccc(S(=O)(=O)Nc2cccc(Cl)c2N2CCOCC2)cc1` [Compound A-275, N-[3-chloro-2-(morpholin-4-yl)phenyl]-4-methanesulfonylbenzene-1-sulfonamide] belongs no less than 10000 nM.
Molecule `COCC1(C)CCN(c2ccccc2NS(=O)(=O)Cc2ccc(OC)cc2)CC1` [Compound A-582, N-{2-[4-(methoxymethyl)-4-methylpiperidin-1-yl]phenyl}-1-(4-methoxyphenyl)methanesulfonamide] yielded an AC50 of 2010 to 8000 nM.
On the same count and under the same terms, to `COc1ccc(S(=O)(=O)Nc2ccccc2N2CCC(N(C)c3ccc(F)cc3F)CC2)cc1` [Compound A-189, N-(2-{4-[(2,4-difluorophenyl)(methyl)amino]piperidin-1-yl}phenyl)-4-methoxybenzene-1-sulfonamide] belongs no more than 2000 nM.
Still for that read-out and setting: in the case of `CN(C)S(=O)(=O)c1ccc(S(=O)(=O)Nc2cccc(F)c2N2CCC3(CC2)COC(C)(C)C3)cc1` [Compound A-615] it was no more than 2000 nM.
Take `CN(C)S(=O)(=O)c1ccc(S(=O)(=O)Nc2cccc(F)c2N2CCC(CN3CCC(F)(F)C3)CC2)cc1` [Compound A-774, N4-(2-{4-[(3,3-difluoropyrrolidin-1-yl)methyl]piperidin-1-yl}-3-fluorophenyl)-N1,N1-dimethylbenzene-1,4-disulfonamide]: the AC50 is no more than 2000 nM.
The same measure, in the same setting: to `CN(C)S(=O)(=O)c1ccc(S(=O)(=O)Nc2nc(C3CCN(c4ccc(Cl)cc4F)CC3)cn2C)cc1` [Compound A-84, N4-{4-[1-(4-chloro-2-fluorophenyl)piperidin-4-yl]-1-methyl-1H-imidazol-2-yl}-N1,N1-dimethylbenzene-1,4-disulfonamide] belongs no less than 10000 nM; to `C[C@H]1CN(CC2CCN(c3c(F)cccc3NS(=O)(=O)c3ccc(S(=O)(=O)N(C)C)cc3)CC2)C[C@H](C)O1` (racemic) [Compound A-843, rel-N1-(2-(4-((2,6-dimethylmorpholino)methyl)piperidin-1-yl)-3-fluorophenyl)-N4,N4-dimethylbenzene-1,4-disulfonamide], no more than 2000 nM.
Turning to `COc1ccc(S(=O)(=O)Nc2ccccc2N2CCN(C(C)C(F)(F)F)CC2)cc1` (stereo not shown) [Compound A-531, 4-methoxy-N-{2-[4-(1,1,1-trifluoropropan-2-yl)piperazin-1-yl]phenyl}benzene-1-sulfonamide], the AC50 is no more than 2000 nM.
`CC(N1CCN(c2ccccc2NS(=O)(=O)c2ccc(S(C)(=O)=O)cc2)CC1)C(F)(F)F` (stereo not shown) [Compound A-540, 4-methanesulfonyl-N-{2-[4-(1,1,1-trifluoropropan-2-yl)piperazin-1-yl]phenyl}benzene-1-sulfonamide] came in with an AC50 of no more than 2000 nM.
Still for that read-out and setting: to `CN(CCO)S(=O)(=O)c1ccc(S(=O)(=O)Nc2ccccc2N2CCC(c3c(F)cccc3F)CC2)cc1` [Compound A-223, N4-{2-[4-(2,6-difluorophenyl)piperidin-1-yl]phenyl}-N1-(2-hydroxyethyl)-N1-methylbenzene-1,4-disulfonamide] belongs 2010 to 8000 nM; to `CN(C)S(=O)(=O)c1ccc(S(=O)(=O)Nc2ccccc2N2CCP(=O)(c3ccc(F)cc3)CC2)cc1` [Compound A-232, N4-{2-[4-(4-fluorophenyl)-4-oxo-1,4λ^5-azaphosphinan-1-yl]phenyl}-N1,N1-dimethylbenzene-1,4-disulfonamide], no less than 10000 nM; to `CP(C)(=O)c1ccc(S(=O)(=O)Nc2cccc(Cl)c2N2CCOCC2)cc1` [Compound A-287, N-[3-chloro-2-(morpholin-4-yl)phenyl]-4-(dimethylphosphoryl)benzene-1-sulfonamide], no less than 10000 nM.
As for `CN1CC(c2ccccc2)C2(CCN(c3ccccc3NS(=O)(=O)c3ccc(S(=O)(=O)N(C)C)cc3)CC2)C1=O` (stereo not shown) [Compound A-318, N1,N1-dimethyl-N4-(2-{2-methyl-1-oxo-4-phenyl-2,8-diazaspiro[4.5]decan-8-yl}phenyl)benzene-1,4-disulfonamide], the AC50 was 2010 to 8000 nM.
Same read-out and setting: to `C[C@@H]1CN(CC2CCN(c3c(F)cccc3NS(=O)(=O)c3ccc(S(=O)(=O)N(C)C)cc3)CC2)C[C@H](C)O1` [Compound A-755, N4-[2-(4-{[(2R,6S)-2,6-dimethylmorpholin-4-yl]methyl}piperidin-1-yl)-3-fluorophenyl]-N1,N1-dimethylbenzene-1,4-disulfonamide] belongs no more than 2000 nM; to `CN1CCN(S(=O)(=O)c2ccc(S(=O)(=O)Nc3ccccc3N3CCC(c4c(F)cccc4F)CC3)cc2)CC1` [Compound A-220, N-{2-[4-(2,6-difluorophenyl)piperidin-1-yl]phenyl}-4-[(4-methylpiperazin-1-yl)sulfonyl]benzene-1-sulfonamide], no less than 10000 nM; to `C[C@@H]1CN(C2CCN(c3c(F)cccc3NS(=O)(=O)c3ccc(S(=O)(=O)N(C)C)cc3)CC2)C[C@H](C)O1` [Compound A-868, N4-(2-{4-[(2R,6S)-2,6-dimethylmorpholin-4-yl]piperidin-1-yl}-3-fluorophenyl)-N1,N1-dimethylbenzene-1,4-disulfonamide], no more than 2000 nM.

As usually defined, the AC50 is the concentration giving half of the maximal activity seen. The low end stands for activity at low concentration, the high end for activity only at high concentration.
